From ChEMBL document CHEMBL1201862, “PubChem BioAssay data set” (2004) come the findings set out here.

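Cultured in 96-well plates, cells were exposed to test compound for 48 hours across five concentrations. GI50: concentration for 50% inhibition of growth.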 Calls of active or inactive are those of the source. No stated cut-off is given here; in the data, active = GI50 up to about 1.1 µM and inactive = higher. Bounds are passed on as bounds.

What all share (experiment): NCI-60 cell line screen, 48 h
The subject of experiment [1] is KM-20L2.
Experiment [2] relates to OVCAR-8.
Experiment [3] concerns SF-268.
Experiment [4] relates to SW-620.
Experiment [5] deals with SNB-19.
Experiment [6] has as its system SNB-75.
Experiment [7] deals with NCI-H23.
For experiment [8], the system named is HOP-62.
Experiment [9] has as its system SF-295.
Experiment [10] has as its system MCF7.
The test system of experiment [11] is CCRF-CEM.
The subject of experiment [12] is HL-60.
Experiment [13] has as its system HCT-15.
Experiment [14] deals with OVCAR-3.
Experiment [15] relates to SF-539.
Experiment [16] concerns HT-29.
Experiment [17] has as its system U-251.
Experiment [18] has as its system MOLT-4.

Turning to `Cc1csc(/N=C(/NCCN2CCOCC2)Nc2nc(C)cs2)n1`, the GI50 in [1] was > 100 µM (inactive); in [2] it was > 100 µM (inactive); in [3], > 100 µM (inactive); in [4] it was > 100 µM (inactive); in experiment [5], > 100 µM (inactive); in [6], > 63.2 µM (inactive). Further, the GI50 is > 100 µM (inactive) in experiment [7]; > 100 µM (inactive) in experiment [8]; > 80.2 µM (inactive) in [9]; > 84.5 µM (inactive) in [10]; > 100 µM (inactive) in [11]; 60.7 µM (inactive) in experiment [12]. Moreover, the GI50 is greater than 100 µM in experiment [13]; > 100 µM (inactive) in experiment [14]; > 100 µM (inactive) in experiment [15]; > 100 µM (inactive) in experiment [16]; > 100 µM (inactive) in [17]; > 100 µM (inactive) in experiment [18].
For the molecule `COC(=O)C(C/C=C(\C)c1ccc(Cl)cc1)C(C)=O` (stereo unspecified), the GI50 is 35.9 µM (inactive) in experiment [1]; 52 µM (inactive) in [2]; 48.3 µM (inactive) in [3]; 50.9 µM (inactive) in experiment [4]; > 100 µM (inactive) in experiment [5]; 29.2 µM (inactive) in experiment [6]. Further, the GI50 in experiment [7] is 35.5 µM (inactive); in experiment [8], > 56 µM (inactive); in [9], 39.9 µM (inactive); in experiment [10], 37.7 µM (inactive); in [11], 30.1 µM (inactive); in [12], 14.6 µM (inactive). In addition, the GI50 in experiment [13] is 37.5 µM; in experiment [14], 32.4 µM (inactive); in [15] it was 99.5 µM (inactive); in [16] it was 32.3 µM (inactive); in experiment [17], 26.1 µM (inactive); in experiment [18], 17.9 µM (inactive).
